Active and inactive are the calls of the source.
What was measured:
cells [1] = assay type: functional, cell-based
cells [2] = assay type: functional, cell-based; remark: listed apart in the source
[3] = biological target: Photoreceptor-specific nuclear receptor (Homo sapiens, UniProt Q9Y5X4); assay type: functional, cell-based;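 also: CHO-S cells with Gal4-NCOR and VP16-NR2E3 two-hybrid luciferase reporter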
[4] = HepG2 cell cytotoxicity, dose response, cytotoxicity control for Shn3 inhibitor project, CellTiter-Glo, cherry-picked (AID 624134); assay type: functional, cell-based
[5] = cytotoxicity toward NIH3T3 fibroblasts, dose response, counter-screen, cell-based, ATP luminescence, mouse fibroblasts (AID 2010); assay type: functional;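 also: cells exposed to compound for about 90 hours before reading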
[6] = inhibitors of SNCA 5'UTR-driven reporter translation, confirmation, H4 neuroglioma cells, luminescence (AID 1988); assay type: functional, cell-based
[7] = Luminescence Cell-Based Dose Response HTS to Identify Inhibitors of 5'UTR Stem-Loop Driven Prion Protein mRNA Translation in H4 Neuroglioblastoma Cells. [Related pubchem assays: 1827 (Project Summary), 1813 (Primary HTS)]; assay type: functional
Streptococcus = test: Group A Streptococcus viability loss, dose response, counter-screen for streptokinase expression inhibitor project, luminescence, BacTiterGlo (AID 1915); assay type: functional, organism-based;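 also: potency for reduction of bacterial viability or growth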
[8] = control 3'UTR Renilla luciferase suppression, dose response, counter-screen for Shn3 inhibitor project, cell-based, Clone20-Shn3RL, cherry-picked (AID 624133); assay type: functional
[9] = inhibitors of firefly luciferase expression or activity, dose response, H4 neuroglioma cells, luminescence (AID 1990); assay type: functional, cell-based
INS1 = test: beta cell apoptosis inhibitors, cytokine rescue, dose response, luminescence, retest (AID 449756); assay type: functional, cell-based; settings: Rattus norvegicus;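 also: cell death triggered by IL-1 beta plus TNF-alpha plus IFN-gamma mixture; protective hits raise ATP signal compared with cytokine alone wells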
[10] = cytotoxicity in NIH3T3 fibroblasts, dose response, cytotoxicity control for HSP40 inhibitor project, cell-based, CellTiter-Glo luminescence, cherry-pick, set 2 (AID 624265); assay type: functional
[11] = inhibitors of intracellular T. cruzi replication, confirmation, NIH3T3 host cells, beta-gal luminescence (AID 2044); assay type: functional, cell-based;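 also: intracellular parasites grown in NIH/3T3 mouse fibroblasts as host cells; luminescent beta-galactosidase reporter signal from transgenic T. cruzi replicating inside host cells; inhibitors lower the luminescence signal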
[12] = Shn3 3'UTR reporter inhibitors, dose response, cell-based, Clone20 osteoblasts, firefly luciferase, cherry-picked (AID 624132); assay type: functional;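 also: firefly luciferase luminescence from reporter carrying the Shn3 3'UTR in osteoblasts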
[13] = tested on: Streptococcus sp. 'group A'; test: growth inhibition of control SK(-) GAS strain, dose response, counter-screen for streptokinase expression inhibitor project, luminescence, kanamycin, BacTiterGlo, confirmation (AID 1900); assay type: functional, organism-based
[14] = growth suppression of PTEN-null colon cells, dose response, cell-based, HCT116 PTEN knockout (AID 1047); assay type: functional;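 also: HCT116 colon tumor cells with PTEN knocked out; cells exposed to compound for 60 hours before readout; potency for loss of cell viability measured by luminescence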
Nonstructural protein 1 = Nonstructural protein 1 (Influenza A virus, UniProt Q194T2); assay type: functional, Influenza A virus (A/California/07/2009(H1N1))
Sequence of Nonstructural protein 1 (Q194T2 whole entry): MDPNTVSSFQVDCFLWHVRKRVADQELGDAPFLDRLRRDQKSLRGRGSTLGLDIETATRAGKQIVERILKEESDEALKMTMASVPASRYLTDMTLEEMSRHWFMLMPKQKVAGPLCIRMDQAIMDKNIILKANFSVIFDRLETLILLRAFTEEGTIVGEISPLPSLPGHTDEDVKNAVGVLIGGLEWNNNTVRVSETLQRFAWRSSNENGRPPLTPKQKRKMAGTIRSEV

[15] = growth suppression of beta-catenin-knockout colon cells, dose response, cell-based, HCT116, human colon tumor (AID 1045); assay type: functional;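 also: HCT116 colon tumor cells with beta catenin knocked out; cells exposed to compound for 60 hours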
[16] = biological target: T1, DNA repair protein RAD52 homolog (Homo sapiens, UniProt P43351); assay type: functional, biochemical
T1 sequence (P43351 whole entry): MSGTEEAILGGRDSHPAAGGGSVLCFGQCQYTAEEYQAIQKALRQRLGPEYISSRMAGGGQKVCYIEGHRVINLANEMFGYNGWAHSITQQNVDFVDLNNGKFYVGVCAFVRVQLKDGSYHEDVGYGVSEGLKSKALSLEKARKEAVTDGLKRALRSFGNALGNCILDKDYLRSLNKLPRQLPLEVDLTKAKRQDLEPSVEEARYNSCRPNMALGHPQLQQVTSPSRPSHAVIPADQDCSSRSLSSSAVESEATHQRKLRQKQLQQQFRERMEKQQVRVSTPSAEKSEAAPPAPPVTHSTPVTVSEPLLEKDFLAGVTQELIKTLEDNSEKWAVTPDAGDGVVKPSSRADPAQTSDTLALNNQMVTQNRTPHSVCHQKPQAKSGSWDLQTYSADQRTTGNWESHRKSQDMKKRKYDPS

[17] = biological target: Arf-GAP with SH3 domain, ANK repeat and PH domain-containing protein 1 (Homo sapiens, UniProt Q9ULH1); assay type: functional;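 also: biochemical fluorescence polarization dose–response screen measuring inhibition of ASAP1; ASAP1 GAP domain stimulating GTP hydrolysis by truncated human ARF1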
Sequence of Arf-GAP with SH3 domain, ANK repeat and PH domain-containing protein 1 (Q9ULH1 whole entry, the tested form may be a part): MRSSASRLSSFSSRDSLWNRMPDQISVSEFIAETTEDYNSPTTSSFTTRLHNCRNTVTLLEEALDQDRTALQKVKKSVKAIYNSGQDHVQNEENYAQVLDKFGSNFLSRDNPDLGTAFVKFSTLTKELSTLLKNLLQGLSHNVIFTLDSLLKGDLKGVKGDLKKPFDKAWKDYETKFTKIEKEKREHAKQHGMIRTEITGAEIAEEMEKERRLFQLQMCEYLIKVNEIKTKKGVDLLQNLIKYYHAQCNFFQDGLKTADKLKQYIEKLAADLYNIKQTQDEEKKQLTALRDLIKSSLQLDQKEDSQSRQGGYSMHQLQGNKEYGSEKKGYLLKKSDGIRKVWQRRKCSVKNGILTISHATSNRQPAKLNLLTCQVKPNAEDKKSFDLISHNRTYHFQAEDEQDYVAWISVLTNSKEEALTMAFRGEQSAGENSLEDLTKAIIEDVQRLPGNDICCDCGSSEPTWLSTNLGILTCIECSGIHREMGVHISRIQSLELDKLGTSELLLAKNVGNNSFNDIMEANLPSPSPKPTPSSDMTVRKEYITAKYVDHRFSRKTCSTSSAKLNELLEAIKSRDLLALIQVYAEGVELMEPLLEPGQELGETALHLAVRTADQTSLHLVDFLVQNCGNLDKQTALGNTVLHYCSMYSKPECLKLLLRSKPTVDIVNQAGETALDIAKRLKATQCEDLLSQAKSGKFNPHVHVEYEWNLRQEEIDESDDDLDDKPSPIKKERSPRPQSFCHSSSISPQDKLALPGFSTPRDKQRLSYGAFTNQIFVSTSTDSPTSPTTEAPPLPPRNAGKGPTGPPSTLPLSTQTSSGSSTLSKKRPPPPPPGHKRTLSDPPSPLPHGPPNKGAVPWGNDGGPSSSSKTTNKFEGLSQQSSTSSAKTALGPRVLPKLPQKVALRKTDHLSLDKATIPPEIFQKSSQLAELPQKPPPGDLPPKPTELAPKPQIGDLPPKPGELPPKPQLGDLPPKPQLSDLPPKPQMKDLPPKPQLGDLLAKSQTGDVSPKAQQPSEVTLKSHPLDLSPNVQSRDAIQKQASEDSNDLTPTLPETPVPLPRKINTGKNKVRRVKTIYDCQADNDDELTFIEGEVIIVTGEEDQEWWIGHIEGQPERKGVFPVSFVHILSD

[18] = Counterscreen for inhibitors of Trypanosoma brucei methionyl tRNA synthetase (MetRS): Luminescence-based cell-based high throughput dose response assay to identify compounds that are cytotoxic to Jurkat human T lymphocyte cells.; assay type: functional
[19] = biological target: T2, Methionyl-tRNA synthetase, putative (Trypanosoma brucei brucei, UniProt Q38C91); assay type: functional, Trypanosoma brucei brucei strain 927/4 GUTat10.1
T2 sequence (Q38C91 whole entry): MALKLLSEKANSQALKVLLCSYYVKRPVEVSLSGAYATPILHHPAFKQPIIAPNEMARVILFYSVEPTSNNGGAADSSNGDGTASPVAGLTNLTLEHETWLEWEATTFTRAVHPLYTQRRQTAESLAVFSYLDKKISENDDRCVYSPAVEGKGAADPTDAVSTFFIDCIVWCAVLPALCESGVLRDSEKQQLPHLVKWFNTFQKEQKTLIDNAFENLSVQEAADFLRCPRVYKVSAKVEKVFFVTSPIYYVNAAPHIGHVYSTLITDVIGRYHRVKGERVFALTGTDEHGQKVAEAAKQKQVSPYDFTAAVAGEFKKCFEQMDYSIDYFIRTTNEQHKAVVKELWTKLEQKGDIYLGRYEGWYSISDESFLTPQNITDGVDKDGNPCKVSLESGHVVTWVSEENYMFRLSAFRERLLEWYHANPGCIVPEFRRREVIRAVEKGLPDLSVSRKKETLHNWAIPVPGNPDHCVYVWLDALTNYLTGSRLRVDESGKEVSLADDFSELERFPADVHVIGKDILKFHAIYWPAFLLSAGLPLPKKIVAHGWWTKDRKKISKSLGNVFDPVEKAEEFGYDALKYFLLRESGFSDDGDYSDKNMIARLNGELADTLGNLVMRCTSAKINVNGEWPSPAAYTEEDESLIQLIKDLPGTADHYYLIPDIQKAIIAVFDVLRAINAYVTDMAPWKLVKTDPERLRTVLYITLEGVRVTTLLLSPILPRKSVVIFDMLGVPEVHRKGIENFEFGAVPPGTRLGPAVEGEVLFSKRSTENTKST

[20] = biological target: T2, Methionyl-tRNA synthetase, putative; assay type: functional, Trypanosoma brucei brucei strain 927/4 GUTat10.1; remark: listed apart in the source
[21] = biological target: T3, Aryl hydrocarbon receptor (Homo sapiens, UniProt P35869); settings: Potency;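 also: confirmatory quantitative high-throughput screen measuring activation of the AhR signaling pathway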
T3 sequence (P35869 whole entry): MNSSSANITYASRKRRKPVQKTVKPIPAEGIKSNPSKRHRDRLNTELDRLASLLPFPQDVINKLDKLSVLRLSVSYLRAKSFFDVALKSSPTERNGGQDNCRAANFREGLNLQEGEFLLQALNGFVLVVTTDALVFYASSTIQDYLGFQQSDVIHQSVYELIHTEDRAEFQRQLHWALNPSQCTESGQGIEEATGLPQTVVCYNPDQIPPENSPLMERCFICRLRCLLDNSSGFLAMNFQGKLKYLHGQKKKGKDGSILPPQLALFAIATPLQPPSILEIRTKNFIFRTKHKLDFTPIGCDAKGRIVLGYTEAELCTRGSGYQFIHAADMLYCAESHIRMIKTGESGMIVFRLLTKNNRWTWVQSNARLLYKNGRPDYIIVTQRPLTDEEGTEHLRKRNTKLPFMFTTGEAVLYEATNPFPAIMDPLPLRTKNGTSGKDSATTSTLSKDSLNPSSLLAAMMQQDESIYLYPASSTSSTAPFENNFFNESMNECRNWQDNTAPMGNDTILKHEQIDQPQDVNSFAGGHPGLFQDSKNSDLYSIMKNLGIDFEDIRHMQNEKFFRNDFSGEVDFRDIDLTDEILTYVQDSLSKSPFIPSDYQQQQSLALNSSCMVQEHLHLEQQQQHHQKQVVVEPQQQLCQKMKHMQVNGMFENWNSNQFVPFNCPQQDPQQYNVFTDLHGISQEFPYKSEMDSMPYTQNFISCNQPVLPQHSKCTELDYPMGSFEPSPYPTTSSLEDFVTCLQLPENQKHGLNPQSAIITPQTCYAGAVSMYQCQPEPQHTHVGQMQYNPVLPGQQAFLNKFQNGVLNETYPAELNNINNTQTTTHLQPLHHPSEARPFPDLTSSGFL

Sequence of Photoreceptor-specific nuclear receptor (Q9Y5X4 whole entry, the tested form may be a part): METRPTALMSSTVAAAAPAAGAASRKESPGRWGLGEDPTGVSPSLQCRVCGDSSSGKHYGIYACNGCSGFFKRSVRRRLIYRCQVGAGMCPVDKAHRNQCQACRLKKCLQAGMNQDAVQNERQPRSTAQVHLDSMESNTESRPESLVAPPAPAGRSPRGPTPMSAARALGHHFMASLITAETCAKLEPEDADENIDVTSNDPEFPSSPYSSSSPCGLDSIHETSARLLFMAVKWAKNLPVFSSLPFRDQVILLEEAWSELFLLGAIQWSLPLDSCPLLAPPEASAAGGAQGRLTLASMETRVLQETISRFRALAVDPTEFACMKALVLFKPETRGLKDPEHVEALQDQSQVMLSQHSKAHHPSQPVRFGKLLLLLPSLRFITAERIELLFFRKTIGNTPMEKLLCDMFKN

**Q.** With `COc1cnc(-c2ccccn2)nc1N(C)c1ccccc1` as the compound, how does the EC50 (cells [1]) read?
**A.** > 350 µM (not active)

**Q.** And the EC50 (cells [2])?
**A.** 8.25 µM (active)

**Q.** And the IC50 [3]?
**A.** 4.58 µM (active)

**Q.** What about the AC50 [4] of the same compound?
**A.** 4.02 µM (active)

**Q.** And the EC50 [5]?
**A.** 5.78 µM (active)

**Q.** And the EC50 [6]?
**A.** > 120 µM (not active)

**Q.** And the EC50 [7]?
**A.** 7.24 µM (active)

**Q.** What about the EC50 (Streptococcus) of the same compound?
**A.** 11 µM (active)

**Q.** What about the AC50 [8] of the same compound?
**A.** 920 nM (active)

**Q.** And the EC50 [9]?
**A.** 8.68 µM (active)

**Q.** What about the AC50 (INS1) of the same compound?
**A.** 4.34 µM (active)

**Q.** What about the AbsAC35_uM [10] of the same compound?
**A.** 62.35 µM

**Q.** And the EC50 [11]?
**A.** 1.89 µM (active)

**Q.** And the AC50 [12]?
**A.** 1.83 µM (active)

**Q.** And the EC50 [13]?
**A.** 4.74 µM (active)

**Q.** Which EC50 [14] does the source give for `CCC(/C=C1\Sc2ccc(OC)cc2N1CCO)=C\c1sc2ccc(OC)cc2[n+]1CCO` here?
**A.** 5.7 µM (active)

**Q.** And the IC50 (Nonstructural protein 1)?
**A.** 5.11 µM (active)

**Q.** What about the EC50 [15] of the same compound?
**A.** 5.82 µM (active)

**Q.** And the AC50 [16]?
**A.** 1.77 µM (active)

**Q.** And the IC50 [17]?
**A.** 165 µM (inactive)

**Q.** Which IC50 [18] does the source give for `O=C(CCCOc1ccc(Cl)cc1Cl)N/N=C/c1ccco1` here?
**A.** 83.3 µM (inactive)

**Q.** And the IC50 [19]?
**A.** 12.7 µM (inactive)

**Q.** What about the IC50 [20] of the same compound?
**A.** 12 µM (inactive)

**Q.** With `CC1(C)C(C=C(Cl)Cl)C1C(=O)OCc1cccc(Oc2ccccc2)c1` (centres undefined) [PERMETHRIN] as the compound, how does the AC50 [21] read?
**A.** 44.7 µM (inconclusive)
